How the values were obtained:
[1] = test system: SN12C cells; assay: Cell viability (CellTiter-Glo), SN12C; assay type: cell-based, human; conditions: 3 days
Experimental: Cell viability assays were performed by plating 2000 cells/well in 96-well plates in triplicate and treating the following day with the indicated agent. The experiment was continued for 3 days and then cell viability was determined using CellTiter-Glo assay kit (Promega). The assay was measured using a luminometer. […] Experimental results are the average of at least three independent experiments.

[2] = test system: PI3K, mTORC1 and mTORC2 signaling; assay: Western blotting of PI3K-AKT-mTOR signaling; assay type: cell-based, human; conditions: added to CYT387
Experimental: Cells were plated in 6 well dishes and treated the following day with the indicated agents. Treatments were for 24 hours, after which cells were washed with ice cold PBS and lysed with RIPA buffer (Sigma). Phosphatase inhibitor cocktail set II and protease inhibitor cocktail set III (EMD Millipore) were added at the time of lysis. Lysates were centrifuged at 15,000 g×10 min at 4 degrees C. Protein concentrations were calculated based on a BCA assay (Thermo Scientific) generated standard curve. Proteins were resolved using the NuPAGE Novex Mini Gel system on 4% to 12% Bis-Tris Gels (Invitrogen). For western blotting, equal amounts of cell lysates (15-20 μg of protein) were resolved with SDSPAGE, and transferred to membranes. The membrane was probed with primary antibodies, washed, and then incubated with corresponding fluorescent secondary antibodies and washed. The fluorescent signal was captured using LI-COR (Lincoln, Nebr.) Odyssey Imaging System, and fluorescent intensity was quantified using the Odyssey software where indicated. The following antibodies were used for Western blots: p-S6 (S240/244), S6, LC3B, p-Akt(S473), p-Akt(T308), Akt, cleaved caspase3 (Cell Signaling Technologies). p-Stat3 (Y705), Stat3 and β-actin (AC15) (Abcam). Ki67 (Dako) and cleaved caspase3 (Cell Signaling Technologies) were used for immunohistochemistry. […] BX795 and GDC0941 were purchased from Sigma.

[3] = test system: Atg5+/+ murine embryonic fibroblasts; assay: Lipid droplet number in Atg5+/+ MEFs; assay type: cell-based, mouse; conditions: 24 hr
Experimental: (§1) Cells were grown on coverslips then treated with drug for 24 hours. Cells were fixed in 4% paraformaldehyde for 15 min, rinsed with PBS. Cells were washed with a 1% saponin solution for 15 min at room temperature then washed several times in PBS to remove detergent. Cells were then incubated in Bodipy (ThermoFisher #D3922) at a final concentration of 1 uM for 10 min. Bodipy was removed and slides were rinsed with PBS then air dried and mounted on slides using Dako mounting media with Dapi.

[4] = test system: ACHN cells; assay: Lipid droplet staining (Bodipy 493/503), ACHN; assay type: cell-based, human; conditions: 24 hrs; p<0.001 vs control
Experimental: as §1

[5] = test system: SN12C cells; assay: Apoptosis (Caspase 3/7-Glo), SN12C; assay type: cell-based, human; conditions: 72 h
Experimental: (§2) Apoptosis was determined using Caspase 3/7-Glo assay kit (Promega) following the manufacturer's instructions. Briefly, 2000 cells per well were plated in 96 well plates and cultured for 72 h. […] Caspase 3/7 activity was measured using a luminometer. Luminescence values were normalized by cell numbers.

[6] = test system: ACHN cells; assay: Cellular respiration (XF96 Seahorse, ECAR and OCR); assay type: cell-based, human; conditions: XF-96 Extracellular Flux Analyzer
Experimental: Oxygen consumption and extracellular acidification rates were carried out in a XF96 Seahorse Analyzer (Seahorse Bioscience, Billerica, Mass., USA). Cells were plated in the wells of 96-well plates (8×10^3 cells/well; XF96 plates, Seahorse Bioscience, North Billerica, Mass.) and incubated at 37° C. overnight. The next day, cells were treated with indicated drugs for 24 hours and then the medium was changed to XF Assay Medium and loaded with glucose, oligomycin, and 2-DG, respectively, as manufacture's recommendation.

[7] = test system: Atg5−/− murine embryonic fibroblasts; assay: Lipid droplet number in Atg5−/− MEFs; assay type: cell-based, mouse; conditions: ATG5 deficient, 24 hr
Experimental: as §1

[8] = test system: glycolysis; assay: Glucose uptake and lactate excretion as readouts for glycolysis; assay type: cell-based, human
Description: The PI3K-AKT-mTOR pathway regulates multiple steps in glucose uptake and metabolism.

[9] = test system: ACHN cells; assay: Apoptosis (Caspase 3/7-Glo), ACHN; assay type: cell-based, human; conditions: ACHN, 72 h
Experimental: as §2

[10] = test system: ACHN xenografts; assay: ACHN xenograft study; assay type: in vivo
Experimental: (§3) 6-week old mice were utilized for human renal cell carcinoma xenografts. For both ACHN and SN12C cell lines 2×10^6 cells were diluted in 50 μl of PBS and 50 μl of Matrigel (BD Biosciences) and were injected subcutaneously into the right and left flank of each mouse. Tumors were monitored until they reached an average size of 50-80 mm3 (approximately 2 weeks), at which point treatments were begun. […] MK2206 (60 mg/kg/day) were administered by oral gavage 2-3 day/week. […] Tumors and mouse weights were measured twice weekly. At least 6-8 mice per treatment group were included. All mice were euthanized using CO2 inhalation followed by cervical dislocation per institutional guidelines at Oregon Health and Science University. Experiments were approved by the Institutional Animal Care and Use Committee at OHSU.
(§4) Immunostaining was performed following deparaffinization and rehydration of slides. Antigen retrieval was performed in a pressure cooker using citrate buffer (pH 6.0) for 4 min. Nonspecific binding was blocked using Vector mouse IgG blocking serum 30 min at room temperature. Samples were incubated at room temperature with rabbit monoclonal antibodies pS6 (CST #5364) cleaved caspase 3 (CST#9661), and Ki67 (Dako#M7240).
Slides were developed with Vector Immpress rabbit IgG (#MP7401) and Vector Immpress mouse IgG (#MP7400) for 30 min at room temperature. Chromogenic detection was performed using Vector Immpact DAB (#SK4105) for 3 min. Slides were counterstained with hematoxylin. A 3DHistech MIDI Scanner (Perkin Elmer) was used to capture whole slide digital images with a 20× objective. Images were converted to into MRXS files and computer graphic analysis was completed using inForm 1.4.0 Advanced Image Analysis Software (Perkin Elmer).
Mouse tumor size was analyzed by 2-way ANOVA with time and drug as factors, using GraphPad Prism. Mouse weight during treatment was analyzed by repeated measures 2-way ANOVA, with time and drug as factors. A P value less than 0.05 was considered statistically significant. Immunohistochemistry: P-values were calculated using one-way ANOVA, with Bonferroni's multiple comparison test. * denotes P<0.05, ** denotes P<0.01, and *** denotes P<0.001 throughout this disclosure. Metabolite fold-changes were computed and visualized in Python script, using the openpyxl package (for importing Excel files) and the matplotlib package (for visualizing fold changes).

[11] = test system: SN12C xenografts; assay: SN12C xenograft study; assay type: in vivo; conditions: SN12C; CYT387 50 mg/kg/day or MK2206 60 mg/kg/day oral gavage
Experimental: as §3, §4
Slides were developed with Vector Immpress rabbit IgG (#MP7401) and Vector Immpress mouse IgG (#MP7400) for 30 min at room temperature. Chromogenic detection was performed using Vector Immpact DAB (#SK4105) for 3 min. Slides were counterstained with hematoxylin. A 3DHistech MIDI Scanner (Perkin Elmer) was used to capture whole slide digital images with a 20× objective. […]
Mouse tumor size was analyzed by 2-way ANOVA with time and drug as factors, using GraphPad Prism. Mouse weight during treatment was analyzed by repeated measures 2-way ANOVA, with time and drug as factors. […] Immunohistochemistry: P-values were calculated using one-way ANOVA, with Bonferroni's multiple comparison test. * denotes P<0.05, ** denotes P<0.01, and *** denotes P<0.001 throughout this disclosure. […]

[12] = test system: ACHN cells; assay: Cell viability (CellTiter-Glo), ACHN; assay type: cell-based, human; conditions: ACHN, 3 days
Experimental: Cell viability assays were performed by plating 2000 cells/well in 96-well plates in triplicate and treating the following day with the indicated agent. The experiment was continued for 3 days and then cell viability was determined using CellTiter-Glo assay kit (Promega).
The assay was measured using a luminometer. […] Experimental results are the average of at least three independent experiments.

[13] = test system: ACHN cells; assay: Redox homeostasis (p-AMPK, NADPH, GSSG/GSH, ROS); assay type: cell-based, human; conditions: 2 μM CYT387, 10 μM MK2206, 24 hr
Experimental: ROS levels were measured with Cellrox Deep Red (Molecular Probes). Cell were plated in a 96 well clear bottom with black sides cell culture plate. […] The complete media+drug was removed after 24 hours and replaced with 5 μM of Cellrox Deep Red in media. Cells were incubated for 30 min at 370 C then washed with PBS. Fluorescence signal was detected using a Bioteck Cytation 5 plate reader. Data was analyzed using Prism software.

NC1(c2ccc(-c3nc4ccn5c(=O)[nH]nc5c4cc3-c3ccccc3)cc2)CCC1 [MK2206]
proliferation (cell viability) [1]: some anti-proliferative effects | effect on mTORC1 activity in cells treated with CYT387 [2]: additive inhibitory effect on mTORC1 activity | LD numbers [3]: significantly increase LD numbers | number of lipid droplets [4]: increase in the number of lipid droplets | size of lipid droplets [4]: increase in the size of lipid droplets | apoptosis (cleaved-caspase 3/7) [5]: little or no effect on apoptosis | ECAR [6]: significantly reduced the ECAR | lipid droplets [7]: no increase in lipid droplets | lactate/glucose ratio in extracellular media ([8]; Control: 1.51): 0.81 | glucose uptake ([8]; in vitro, 18FDG): significantly decreased glucose uptake | lactate production ([8]; in vitro, culture media): reduced lactate production | apoptosis (cleaved-caspase 3/7) [9]: little or no effect on apoptosis | antitumor effect of single agent ([10]; ACHN, CYT387 50 mg/kg/day or MK2206 60 mg/kg/day oral gavage): exhibited antitumor effect | number of adipophilin-positive LDs in tumors ([10]; treatment day 40, ACHN xenograft tumors, CYT387<MK2206<CYT387+MK2206, p=0.0046): significantly and incrementally increased | antitumor effect of single agent [11]: exhibited antitumor effect | proliferation (cell viability) [12]: some anti-proliferative effects | GSSG/GSH ratios [13]: maintains GSSG/GSH ratios | NADPH levels [13]: increases NADPH levels | ROS [13]: mitigates ROS | p-AMPK [13]: activates p-AMPK
